Data published in patent publication US20080242688A1, “Method 741” (ASTRAZENECA AB, priority 2007, published 2008).
Several values for one entry are separate records, joined by “and”; a condition that tells them apart may be missing. Equal entries are not always repeated.

Tests used:
[1] = target: α7 receptor (Rattus norvegicus, UniProt Q05941); test: Pre-frontal cortex slice GABA sIPSC frequency; format: cell-based; conditions: rat PFC slice
Description: In membranes prepared either from cultured, human recombinant α7 receptor-expressing, human embryonic kidney cells α7-HEK) or from rat brain hippocampus, AZD0328 competed with binding of an iodinated form of the high-affinity, selective α7 receptor antagonist snake toxin, [^125I]-α-bungarotoxin (BTX) (Table 1). In Xenopus oocytes injected with human, recombinant α7 receptor mRNA, AZD0328 activates whole cell currents (Table 2). […] In acutely dissociated rat hippocampal interneurons, AZD0328 elicits rapidly activated, desensitizing whole-cell current (Table 1), consistent with the known properties of rat neuronal α7 receptors. […] AZD0328 modulates synaptic function, consistent with the well-known role of α7 receptors as heteroreceptor modulators of glutamatergic and GABAergic synaptic function.

[2] = system: FFX Sprague Dawley rats; test: Hippocampal long-term potentiation in vivo; set-up: species or system rat; conditions: 0.3 mg/kg
Description: AZD0328 reversed a deficit in hippocampal long-term potentiation (LTP) in FFX Sprague Dawley rats (Table 2). […] 0.3 mg/kg of AZD0328 was ineffective in this test.

[3] = Cardiovascular effects in telemetered rats; format: in vivo, rat; conditions: plasma, rat
Description: (§1) Effects of single oral doses of AZD0328 on mean, systolic and diastolic arterial blood pressures, heart rate, body temperature, locomotor activity and respiratory parameters were evaluated in rats by combining whole body plethysmography with telemetry (Table 3). […] The degree of hypertension, however, was similar at the 3 highest doses, which partly can be explained by the high individual variation in plasma exposure at each dose level. The effect on heart rate was, on the other hand, dose-related.

[4] = system: rats; test: Cardiovascular effects in telemetered rats; format: in vivo, rat
Description: as §1

[5] = Single dose PK/TK, minipig; format: in vivo
Description: (§2) This section provides a summary of the pharmacokinetic and metabolism properties of AZD0328 derived from in vivo studies. […] The derived PK/TK parameters from these studies are presented in Table 4 for single dose studies (DMR4, 0619LR, 20030191PCR, DMO16, DMB10, DMW12, 50190, 0190DD and 03.330/1), and are presented in Table 5 multiple dose PK/TK studies (DMR4, 0612AR, DMB15, 50190, 0190DD and 0295AD).

[6] = Single dose PK/TK, ferret; conditions: in vivo
Description: as §2

[7] = Multiple dose PK/TK, rat; format: in vivo
Description: as §2

[8] = system: Mouse lymphoma; test: Mouse lymphoma test; format: cell-based
Description: The genotoxic potential of AZD0328 has been evaluated in the Ames test and in the Mouse lymphoma test. AZD0328 was not mutagenic in either of these tests.

[9] = target: human recombinant α7 receptor (Homo sapiens, UniProt P36544); test: Whole cell current activation kinetics, α7-HEK cells; format: cell-based; set-up: expressed in transfected cells; host or cells: Xenopus oocytes (mRNA injected)
Chain of human recombinant α7 receptor (P36544 23-502): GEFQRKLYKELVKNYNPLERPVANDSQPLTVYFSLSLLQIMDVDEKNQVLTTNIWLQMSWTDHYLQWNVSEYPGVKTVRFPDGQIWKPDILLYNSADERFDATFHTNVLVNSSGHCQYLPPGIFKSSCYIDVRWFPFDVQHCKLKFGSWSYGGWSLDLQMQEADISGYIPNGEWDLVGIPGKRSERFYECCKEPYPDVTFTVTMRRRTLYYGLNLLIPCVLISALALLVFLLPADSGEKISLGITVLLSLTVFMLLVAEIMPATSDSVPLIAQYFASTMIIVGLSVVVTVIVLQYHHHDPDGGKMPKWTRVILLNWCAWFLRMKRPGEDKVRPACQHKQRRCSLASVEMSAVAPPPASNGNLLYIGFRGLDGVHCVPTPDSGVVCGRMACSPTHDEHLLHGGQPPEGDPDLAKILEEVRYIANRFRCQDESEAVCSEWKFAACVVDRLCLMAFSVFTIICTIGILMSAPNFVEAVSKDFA

[10] = both sexes, Gottingen, in vivo, minipig 2M+2F, 50190, single oral 73.1 mg/kg (338 μmol/kg), capsules, fasted
[11] = both sexes, Gottingen, in vivo, minipig 2M+2F, 50190, single oral 563 mg/kg (2602 μmol/kg), capsules, fasted
[12] = male, Gottingen, in vivo, minipig 3M, DMW12, single oral 16.9 mg/kg (78.1 μmol/kg), solution, fed
[13] = male, ferret 4M, DMO16, single oral 10 mg/kg (46 μmol/kg)
[14] = both sexes, rat, in vivo, po, 2.16 mg/kg, rat 1F+1M, DMR4, 2.16 mg/kg (10 μmol/kg), day 1
[15] = both sexes, rat, in vivo, po, 2.16 mg/kg, rat 1F+1M, DMR4, 2.16 mg/kg (10 μmol/kg), day 7
[16] = female, rat, in vivo, po, 2.16 mg/kg, rat 4F, 0612AR, 2.16 mg/kg (10 μmol/kg), day 1
[17] = female, rat, in vivo, po, 2.16 mg/kg, rat 4F, 0612AR, 2.16 mg/kg (10 μmol/kg), day 30
[18] = female, rat, in vivo, po, 15.1 mg/kg, rat 4F, 0612AR, 15.1 mg/kg (70 μmol/kg), day 1
[19] = female, rat, in vivo, po, 15.1 mg/kg, rat 4F, 0612AR, 15.1 mg/kg (70 μmol/kg), day 30
[20] = female, rat, in vivo, po, 64.9 mg/kg, rat 4F, 0612AR, 64.9 mg/kg (300 μmol/kg), day 1
[21] = female, rat, in vivo, po, 64.9 mg/kg, rat 4F, 0612AR, 64.9 mg/kg (300 μmol/kg), day 30
[22] = male, rat, in vivo, po, 2.16 mg/kg, rat 4M, 062AR, 2.16 mg/kg (10 μmol/kg), day 30
[23] = male, rat, in vivo, po, 2.16 mg/kg, rat 4M, 0612AR, 2.16 mg/kg (10 μmol/kg), day 1
[24] = male, rat, in vivo, po, 15.1 mg/kg, rat 4M, 0612AR, 15.1 mg/kg (70 μmol/kg), day 1
[25] = male, rat, in vivo, po, 15.1 mg/kg, rat 4M, 0612AR, 15.1 mg/kg (70 μmol/kg), day 30
[26] = male, rat, in vivo, po, 64.9 mg/kg, rat 4M, 0612AR, 64.9 mg/kg (300 μmol/kg), day 1
[27] = male, rat, in vivo, po, 64.9 mg/kg, rat 4M, 0612AR, 64.9 mg/kg (300 μmol/kg), day 30

Chain of α7 receptor (Q05941 23-502): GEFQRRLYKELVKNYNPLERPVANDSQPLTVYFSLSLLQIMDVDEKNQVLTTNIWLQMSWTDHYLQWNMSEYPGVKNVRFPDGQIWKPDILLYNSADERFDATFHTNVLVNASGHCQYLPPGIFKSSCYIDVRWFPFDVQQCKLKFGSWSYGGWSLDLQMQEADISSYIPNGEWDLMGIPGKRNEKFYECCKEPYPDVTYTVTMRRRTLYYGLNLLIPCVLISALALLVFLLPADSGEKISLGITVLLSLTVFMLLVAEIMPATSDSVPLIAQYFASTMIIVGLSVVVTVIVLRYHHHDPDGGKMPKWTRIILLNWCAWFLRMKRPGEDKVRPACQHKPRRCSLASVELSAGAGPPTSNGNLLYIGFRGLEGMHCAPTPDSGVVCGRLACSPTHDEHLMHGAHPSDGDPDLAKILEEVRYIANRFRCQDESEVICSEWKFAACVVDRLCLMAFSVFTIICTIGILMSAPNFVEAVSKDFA

For `c1cnc2c(c1)C[C@@]1(CN3CCC1CC3)O2` [AZD0328, (R)-Spiro[1-azabicyclo[2.2.2]octane-3,2′(3′H)-furo[2,3-b]pyridine]], the EC50 [1] was 700 nM, the Emax ([1]; read-out: Maximum response, GABA sIPSC frequency) was 330% and the “effect on hippocampal LTP” value [2] was “ineffective”. For the same compound, the Cmax ([3]; po, highest dose, read-out: total Cmax) was 31200 nM, the Cmax ([3]; oral, 1.1 mg/kg, read-out: NOAEL (effect<10%) on cardiovascular function, total Cmax) was 500 nM and the “increase in HR” value ([4]; rat, highest dose (total Cmax 31.2 μM)) was 19%. For the same compound, the “dose without CV effect” value ([4]; rat, oral gavage) was 1.1 mg/kg, the “duration of BP and HR increase postdose” value ([4]; telemetered rats) was “increased for up to 6 h postdose” and the AUC [5, 10] was 3140 ng·h/mL and 14.5 µM·h. For the same compound, the Cmax [5, 10] was 379 ng/mL and 1.75 µM, the Tmax [5, 10] was 2 to 6 h and the AUC [5, 11] was 18200 ng·h/mL and 84.2 µM·h. The Cmax [5, 11] was 1910 ng/mL and 8.84 µM, the Tmax [5, 11] was 12 h and the clearance ([5]; male, Gottingen, in vivo, minipig 3M, DMW12, iv 8.5 mg/kg (39.3 μmol/kg)) was 35.5 mL/min/kg. The half-life ([5]; male, Gottingen, in vivo, minipig 3M, DMW12, iv 8.5 mg/kg (39.3 μmol/kg), read-out: T½ (converted)) was 3.71 ± 1.72 h, the Vd ([5]; male, Gottingen, in vivo, minipig 3M, DMW12, iv 8.5 mg/kg (39.3 μmol/kg), read-out: Vss) was 11.1 ± 4.2 L/kg and the AUC [5, 12] was 404 ng·h/mL and 1.87 µM·h. The Cmax [5, 12] was 81.3 ng/mL and 376 nM, the Tmax [5, 12] was 1 to 4 h and the F ([5]; minipig 3M, DMW12, oral 16.9 mg/kg vs iv 8.5 mg/kg) was 5.19 ± 2.22%. For the same compound, the half-life ([6]; ferret, read-out: elimination half-life) was under 5 h, the AUC [6, 13] was 4000 ng·h/mL and 18.3 µM·h and the Cmax [6, 13] was 590 ng/mL and 2.73 µM. For the same compound, the Tmax [6, 13] was 0.25 to 1 h, the half-life ([6]; male, ferret 4M, DMO16, single oral 10 mg/kg (46 μmol/kg), read-out: T½ (converted)) was 3.98 ± 1.66 h and the AUC [7, 14] was 699 ng·h/mL to 861 ng·h/mL and 3.23 µM·h to 3.98 µM·h. The Cmax [7, 14] was 251 ng/mL to 344 ng/mL and 1.16 µM to 1.59 µM, the Tmax [7, 14] was 0.5 to 1 h and the AUC [7, 15] was 2.77 µM·h to 3.96 µM·h and 599 ng·h/mL to 857 ng·h/mL. It also gave a Cmax [7, 15] of 212 to 324 ng/mL, a Cmax at 7 day [7, 15] of 981 to 1500 nM and a Tmax [7, 15] of 0.5 h. For the same compound, the AUC [7, 16] was 916 ng·h/mL and 7.25 µM·h, the Cmax at 1 day [7, 16] was 236 ng/mL and 1.87 µM and the Tmax at 1 day [7, 16] was 1 h. The AUC [7, 17] was 858 ng·h/mL and 6.79 µM·h, the Cmax at 30 day [7, 17] was 220 ng/mL and 1.74 µM and the Tmax at 30 day [7, 17] was 1 h. The AUC [7, 18] was 8120 ng·h/mL and 64.3 µM·h, the Cmax at 1 day [7, 18] was 984 ng/mL and 7.79 µM and the Tmax at 1 day [7, 18] was 1 h. The AUC [7, 19] was 9600 ng·h/mL and 76 µM·h, the Cmax at 30 day [7, 19] was 1420 ng/mL and 11.2 µM and the Tmax at 30 day [7, 19] was 1 h. The AUC [7, 20] was 40400 ng·h/mL and 320 µM·h, the Cmax [7, 20] was 2480 ng/mL and 19.6 µM and the Tmax [7, 20] was 1 to 3 h. The AUC [7, 21] was 42100 ng·h/mL and 333 µM·h, the Cmax [7, 21] was 2930 ng/mL and 23.2 µM and the Tmax [7, 21] was 1 h. The AUC [7, 22] was 412 ng·h/mL and 3.26 µM·h, the Cmax at 30 day [7, 22] was 154 ng/mL and 1.22 µM and the Tmax at 30 day [7, 22] was 1 h. For the same compound, the AUC [7, 23] was 528 ng·h/mL and 4.18 µM·h, the Cmax at 1 day [7, 23] was 189 ng/mL and 1.5 µM and the Tmax at 1 day [7, 23] was 1 h. The AUC [7, 24] was 4230 ng·h/mL and 33.5 µM·h, the Cmax at 1 day [7, 24] was 769 ng/mL and 6.09 µM and the Tmax at 1 day [7, 24] was 1 to 3 h. The AUC [7, 25] was 5630 ng·h/mL and 44.6 µM·h, the Cmax at 30 day [7, 25] was 1160 ng/mL and 9.21 µM and the Tmax at 30 day [7, 25] was 1 h. The AUC [7, 26] was 23900 ng·h/mL and 189 µM·h, the Cmax [7, 26] was 1670 ng/mL and 13.2 µM and the Tmax [7, 26] was 1 to 6 h. For the same compound, the AUC [7, 27] was 29300 ng·h/mL and 232 µM·h, the Cmax [7, 27] was 2780 ng/mL and 22 µM and the Tmax [7, 27] was 1 h. For the same compound, the AUC/dose ([7]; rat 1F+1M, DMR4, 2.16 mg/kg (10 μmol/kg), day 1) was 0.323-0.398, the AUC/dose ([7]; rat 1F+1M, DMR4, 2.16 mg/kg (10 μmol/kg), day 7) was 0.277-0.396 and the AUC/dose ([7]; rat 4F, 0612AR, 2.16 mg/kg (10 μmol/kg), day 1) was 0.725 ± 0.068. It also gave an AUC/dose ([7]; rat 4F, 0612AR, 2.16 mg/kg (10 μmol/kg), day 30) of 0.679 ± 0.134, an AUC/dose ([7]; rat 4F, 0612AR, 15.1 mg/kg (70 μmol/kg), day 1) of 0.919 ± 0.071 and an AUC/dose ([7]; rat 4F, 0612AR, 15.1 mg/kg (70 μmol/kg), day 30) of 1.09 ± 0.13. For the same compound, the AUC/dose ([7]; rat 4F, 0612AR, 64.9 mg/kg (300 μmol/kg), day 1) was 1.07 ± 0.10, the AUC/dose ([7]; rat 4F, 0612AR, 64.9 mg/kg (300 μmol/kg), day 30) was 1.11 ± 0.14 and the AUC/dose ([7]; rat 4M, 062AR, 2.16 mg/kg (10 μmol/kg), day 30) was 0.326 ± 0.084. It also gave an AUC/dose ([7]; rat 4M, 0612AR, 2.16 mg/kg (10 μmol/kg), day 1) of 0.418 ± 0.062, an AUC/dose ([7]; rat 4M, 0612AR, 15.1 mg/kg (70 μmol/kg), day 1) of 0.479 ± 0.037 and an AUC/dose ([7]; rat 4M, 0612AR, 15.1 mg/kg (70 μmol/kg), day 30) of 0.637 ± 0.043. For the same compound, the AUC/dose ([7]; rat 4M, 0612AR, 64.9 mg/kg (300 μmol/kg), day 1) was 0.630 ± 0.083, the AUC/dose ([7]; rat 4M, 0612AR, 64.9 mg/kg (300 μmol/kg), day 30) was 0.773 ± 0.057 and the mutagenicity [8] was “not mutagenic”. For the same compound, the “10-90% rise time, whole cell current” value [9] was 1.5 ms.
